The results in this text go back to patent publication US20190015423A1, “REGULATION OF GENE EXPRESSION BY MODULATING PRIMARY CILIA LENGTH” (THE TRUSTEES OF COLUMBIA UNIVERSITY IN THE CITY OF NEW YORK, priority 2016, published 2019).

One assay deals with MC3T3 osteoblasts. Description: Flow-induced paracrine signaling: conditioned media of treated osteocytes on osteoblasts (OPN mRNA). The format is cell-based. Particulars: osteocytes treated with tubastatin 5 μM 3-4 hours; 12 hrs flow; osteoblasts cultured 24 hours.
The subject of another assay is C57Bl/6 mice. The experiment in a line: Load-induced bone formation: compressive ulnar loading and dynamic histomorphometry. The format is in vivo. Particulars: tubastatin 5 mg/kg s.c. 6 consecutive days; for relative bone formation rate (rBFR): load day 4-6, n=3, preliminary study.

The structures appear in SMILES notation. “Also recorded” adds a separate entry of the source.

Source text for C57Bl/6 mice: All data are shown in reference to the non-loaded contralateral limb as control. […] On day 4-6 the mice were subjected to daily axial compressive ulnar loading. Mice were placed under isoflurane anesthesia and forelimbs were placed between two loading cups controlled by an electromagnetic loading system with feedback control (Bose, ELF 3220). An initial 0.1 N preload was applied, followed by 3 N of cyclic compression applied with a 2 Hz sine wave for 120 cycles, generating a strain gage verified average peak deformation of 1895 μstrain. On day 8, mice were subcutaneously injected with calcein (10 mg/kg) and alizarin red (70 mg/kg) on day 12. Mice were euthanized on day 18 and prepared for dynamic histomorphometric analysis.
Compressive ulnar loading was applied on days 5-7 to mechanically stimulate bone (3N at 2 Hz for 120 cycles) [9].
On the final three days of drug or control injection, animals were also subjected to compressive ulnar load at a peak load of 3 N using a 2 Hz sine wave for 120 cycles, as previously described (Temiyasathit, S. et al. PLoS One 7, (2012); Lee, K. L. et al. FASEB J. 28, 1157-1165 (2014)). Contralateral limbs served as a non-loaded control. 2 days following load, mice were treated with 10 mg/kg calcein (Sigma), and 4 days later 70 mg/kg alizarin (Sigma), with mice being sacrificed 6 days later.
Dynamic histomorphometry was performed as previously described, measuring the amount and separation of calcein and alizarin labels to quantify mineralizing surface (rMS/BS), mineral apposition rate (rMAR), and bone formation rate (rBFR/BS) relative to non-loaded controls (Temiyasathit, S. et al. PLoS One 7, (2012); Lee, K. L. et al. FASEB J. 28, 1157-1165 (2014)). Left and right ulnae were dissected and preserved in ethanol. Samples were then infiltrated with methyl methacrylate, and embedded in methyl methacrylate and benzoyl peroxide. Transverse sections of the ulnar midshaft were imaged on a laser scanning confocal microscope (Olympus Fluoview FV1000). Measurements of outer bone perimeter (OP), single label perimeter (SL), double label perimeter (DL), and double label area (DA) were made in ImageJ. The mineralizing surface relative to outer bone surface (MS/BS), mineral apposition rate (MAR), and bone formation rate (BFS/BS) were calculated as:
Relative measurements—rMS/BS, rMAR, rBFR/BS—were determined by subtracting non-loaded from loaded ulnae to display differences due to mechanical load.

Turning to `CN1CCc2c(c3ccccc3n2Cc2ccc(C(=O)NO)cc2)C1` [tubastatin, tubastatin A], in the assay with MC3T3 osteoblasts, the “osteoblast osteogenic gene (osteopontin, OPN) expression after conditioned media from flow-stimulated osteocytes” value is “decreased; also recorded: impaired”. For the same compound, the figures for the “relative bone formation rate (rBFR)” value in the assay on C57Bl/6 mice and in the assay on C57Bl/6 mice (listed as Tubastatin) were “did not elicit a marked change” and “slightly decreased”, respectively. In addition, the “decrease in active mineralizing surface (rMS/BS)” value in the assay on C57Bl/6 mice (data not shown) was “over 50%”.
